This note sets out measurements from patent publication US20150252048A1, “SUBSTITUTED N-(3-PYRIMIDIN-4-YL)PHENYL)ACRYLAMIDE ANALOGS AS TYROSINE RECEPTOR KINASE BTK INHIBITORS” (UNIVERSITY OF UTAH RESEARCH FOUNDATION, priority 2012, published 2015).

Data set [1] can be described thus: Caco-2 bidirectional permeability assay. It is filed as in vitro ADME. To be noted: human. As to the method:
(§1) Cell membrane permeability is an important drug characteristic. Typically, a drug candidate is test in a Caco-2 cell transmembrane permeability assay. Compound 3 was tested in a bidirectional permeability assay, and the results are shown in Table V. The data are consistent with the representative compound having good cellular membrane permeability, and the efflux ratio is consistent with active efflux of the drug from cell. The study was conducted using standard techniques known in the art.

In data set [2] the test system is Caco-2 cell. The data set can be described thus: Caco-2 bidirectional permeability assay. To be noted: Caco-2. The class given is in vitro ADME. As for the experimental part: as §1
In general terms: Passage across Caco-2 layers is used to estimate intestinal permeability.

Data set [3] can be described thus: Microsomal stability. To be noted: for Compound Remaining: human microsomes 0.5 mg protein/mL, 1 μM. The class given is in vitro ADME, human. As to the method:
Data were also obtained for the stability of Compound 3 when incubated with a microsomal preparation. Drug metabolism can occur, at least in part, in cellular microsomes, and thus the assay assesses the stability of drug to metabolic modification. The concentration of compound 3 was 1 μM in the assay system and the indicated microsomes were present at 0.5 mg total protein per milliliter. The concentration of intact drug was determined at the indicated timepoints using a LC-MS/MS assay. The enzyme activity of the microsomes used in this study were assessed using a positive control, testosterone.

A short description of data set [4]: Glutathione (GSH) trapping assay. The class given is in vitro ADME. To be noted: peak area vs intact compound 3 at time zero, 1 mg/mL human liver microsomal protein. From the text:
Drug metabolism in vivo can lead to reactive intermediates that form covalent adducts with cellular materials. Such covalent binding of reactive metabolites is potentially involved in severe adverse drug reactions. However, the covalent binding assay is of low throughput and costly, a qualitative trapping assay measuring trapping of drug glutathione conjugates in human liver microsomes can provide information on the propensity of a drug candidate to be involved in covalent binding reactions. A glutathione (GSH) trapping assay was carried out on representative disclosed compound, compound 3, and the results are shown in Table VIII. […] The assay was carried out with 1 mg total human liver microsomal protein per milliliter.
Background: Liver microsomes are vesicles of endoplasmic reticulum, rich in cytochrome P450 enzymes.

Data set [5] concerns the target T1, JAK3 (Homo sapiens, UniProt P52333).
T1 sequence (P52333 1-1124): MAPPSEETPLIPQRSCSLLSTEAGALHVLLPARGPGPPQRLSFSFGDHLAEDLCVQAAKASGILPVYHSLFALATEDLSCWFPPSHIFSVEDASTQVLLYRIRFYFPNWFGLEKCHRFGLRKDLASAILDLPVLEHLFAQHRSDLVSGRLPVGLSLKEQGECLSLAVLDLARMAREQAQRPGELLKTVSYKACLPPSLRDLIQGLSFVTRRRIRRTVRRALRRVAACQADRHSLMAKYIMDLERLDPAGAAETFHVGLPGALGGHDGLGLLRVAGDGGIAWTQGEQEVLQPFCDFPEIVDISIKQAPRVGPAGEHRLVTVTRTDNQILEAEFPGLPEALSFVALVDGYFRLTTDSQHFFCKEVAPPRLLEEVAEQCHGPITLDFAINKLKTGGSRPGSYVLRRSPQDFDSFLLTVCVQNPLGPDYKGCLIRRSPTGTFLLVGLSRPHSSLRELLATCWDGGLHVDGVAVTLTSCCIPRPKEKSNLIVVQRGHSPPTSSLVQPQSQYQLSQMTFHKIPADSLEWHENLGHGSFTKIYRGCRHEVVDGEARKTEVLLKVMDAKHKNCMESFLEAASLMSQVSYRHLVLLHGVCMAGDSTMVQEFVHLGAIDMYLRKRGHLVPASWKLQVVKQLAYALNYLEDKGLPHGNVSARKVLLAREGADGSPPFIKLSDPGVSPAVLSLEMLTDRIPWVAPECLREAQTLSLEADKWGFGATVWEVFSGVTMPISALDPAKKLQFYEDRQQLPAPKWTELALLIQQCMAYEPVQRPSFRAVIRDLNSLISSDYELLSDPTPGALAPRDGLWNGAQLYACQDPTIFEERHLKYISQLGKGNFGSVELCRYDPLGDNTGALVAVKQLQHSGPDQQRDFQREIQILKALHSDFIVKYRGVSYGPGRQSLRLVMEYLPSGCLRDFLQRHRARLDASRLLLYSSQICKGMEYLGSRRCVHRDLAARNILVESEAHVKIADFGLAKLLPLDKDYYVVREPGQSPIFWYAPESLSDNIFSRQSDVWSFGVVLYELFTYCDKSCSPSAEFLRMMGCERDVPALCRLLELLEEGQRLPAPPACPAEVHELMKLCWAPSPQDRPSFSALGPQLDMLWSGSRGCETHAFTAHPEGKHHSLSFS
The data set can be described thus: Specific kinase IC50 assay. The class given is biochemical. To be noted: 1 μM ATP, 10-dose, duplicate. As to the method:
(§2) The assays were carried out in the presence of 1 μM ATP and were conducted in a 10-dose format in duplicate with three-fold serial dilutions starting at 10 μM.

Data set [6] concerns the target ERBB4/HER4 (Homo sapiens, UniProt Q15303). The data set can be described thus: Specific kinase IC50 assay. It is filed as biochemical. To be noted: 1 μM ATP, 10-dose, duplicate. As to the method:
as §2

Structures are written as SMILES. Read-outs that look alike come from different tables or passages of the source.

ERBB4/HER4, sequence (Q15303 26-1308): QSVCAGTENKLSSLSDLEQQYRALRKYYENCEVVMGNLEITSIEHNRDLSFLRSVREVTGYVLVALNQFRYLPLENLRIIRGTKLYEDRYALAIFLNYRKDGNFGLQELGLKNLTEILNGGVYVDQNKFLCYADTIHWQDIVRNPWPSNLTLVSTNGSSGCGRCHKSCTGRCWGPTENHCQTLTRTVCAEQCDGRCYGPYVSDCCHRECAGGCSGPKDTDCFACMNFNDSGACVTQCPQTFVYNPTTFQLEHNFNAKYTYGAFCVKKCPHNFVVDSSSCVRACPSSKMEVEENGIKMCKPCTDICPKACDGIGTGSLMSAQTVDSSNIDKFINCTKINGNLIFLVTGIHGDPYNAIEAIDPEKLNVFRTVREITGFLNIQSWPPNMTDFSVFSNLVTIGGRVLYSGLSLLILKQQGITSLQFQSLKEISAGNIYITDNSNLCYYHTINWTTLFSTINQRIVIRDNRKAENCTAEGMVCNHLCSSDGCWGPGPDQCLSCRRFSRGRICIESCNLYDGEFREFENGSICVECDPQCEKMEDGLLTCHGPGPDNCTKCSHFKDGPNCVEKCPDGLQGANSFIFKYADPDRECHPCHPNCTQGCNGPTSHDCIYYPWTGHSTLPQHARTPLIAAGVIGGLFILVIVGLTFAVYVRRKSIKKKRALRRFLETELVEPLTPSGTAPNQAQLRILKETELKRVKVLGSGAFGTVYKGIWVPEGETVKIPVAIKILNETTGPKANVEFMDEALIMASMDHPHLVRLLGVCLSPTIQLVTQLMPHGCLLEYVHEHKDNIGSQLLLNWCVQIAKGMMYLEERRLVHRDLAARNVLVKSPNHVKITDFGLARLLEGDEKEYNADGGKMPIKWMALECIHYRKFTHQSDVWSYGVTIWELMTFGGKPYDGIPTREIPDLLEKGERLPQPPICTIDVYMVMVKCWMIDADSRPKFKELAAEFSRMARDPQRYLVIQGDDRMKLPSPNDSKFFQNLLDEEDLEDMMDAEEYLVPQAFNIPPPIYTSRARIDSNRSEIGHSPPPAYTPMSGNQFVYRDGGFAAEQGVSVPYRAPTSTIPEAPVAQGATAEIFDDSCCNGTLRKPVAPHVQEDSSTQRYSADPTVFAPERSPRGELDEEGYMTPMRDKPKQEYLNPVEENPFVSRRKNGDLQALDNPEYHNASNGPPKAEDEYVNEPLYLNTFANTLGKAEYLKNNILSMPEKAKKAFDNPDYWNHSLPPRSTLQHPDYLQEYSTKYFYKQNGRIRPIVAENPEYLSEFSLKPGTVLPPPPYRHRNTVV

The term efflux ratio denotes a quotient of directional permeabilities that is used to spot active efflux. One may read the Papp A→B as the apparent permeability from the apical to the basolateral side of a cell layer. A word on the Papp B→A: it is how fast a substance crosses the layer from the basolateral side. What is called half-life is how long it takes for the measured level to halve. As a reminder, the IC50 is the midpoint of a concentration-inhibition curve. High values mean weaker potency in that assay, low ones greater potency in that assay. Consider `C=CC(=O)Nc1cccc(-c2nc(Nc3cccc(N4CCOCC4)c3)nc3[nH]ncc23)c1` [Compound 3, N-(3-(6-((3-morpholinophenyl)amino)-1H-pyrazolo[3,4-d]pyrimidin-4-yl)phenyl)acrylamide], for which, in data set [1] (Caco-2), the efflux ratio is 6. The recovery in data set [1] (Caco-2, Caco-2, A-B, read-out: % Recovery A-B) is 41%; in data set [1] (Caco-2, Caco-2, B-A, read-out: % Recovery B-A), 84%. The Papp A→B in data set [1] (Caco-2, A-B) came out at 5.81 ×10⁻⁶ cm/s. This molecule also showed a Papp B→A in data set [1] (Caco-2, B-A) of 34.9 ×10⁻⁶ cm/s. In addition, the “Permeability Classification” value in data set [2] is given as “High”. For the same molecule, in data set [2], the “Significant Efflux” value is recorded as “Yes”. The half-life at 1 μM in data set [3] (human microsomes) is 16 min. Besides, the “Compound Remaining” value in data set [3] (0 min) is 100 % of initial amount; in data set [3] (10 min), 61.1 % of initial amount; in data set [3] (20 min), 36.0 % of initial amount; in data set [3] (30 min), 20.4 % of initial amount; in data set [3] (60 min), 7.89 % of initial amount. In addition, the microsomal CLint at 1 μM in data set [3] (human microsomes, read-out: CLinit (intrinsic clearance)) was 85 µL/min/mg. The “% Compared to Parent Compound, 0 min” value in data set [4] (0 min) turned out to be 100%. The “% Compared to Parent Compound, 60 min” value in data set [4] (60 min) was 47%. Further, the IC50 stood at 66.6 nM in data set [5] and 17.5 nM in data set [6].
